Biological target: T1, cloned human MC4R (Homo sapiens, UniProt P32245)
T1 construct: made in house; host or cells: Hi5 insect cells (baculovirus infection); membrane preparation
Assay: Membrane binding assay: competitive inhibition of [125I]NDP-α-MSH binding
Conditions: for IC50: read-out: MC4R IC50; for inhibition at 10 µM / Displacement Rate (%) (at 10 μM): [125I]NDP-α-MSH displacement; for inhibition at 10 µM: read-out: Displacement Rate (%) (at 10 μM)

T1 sequence (P32245 whole entry): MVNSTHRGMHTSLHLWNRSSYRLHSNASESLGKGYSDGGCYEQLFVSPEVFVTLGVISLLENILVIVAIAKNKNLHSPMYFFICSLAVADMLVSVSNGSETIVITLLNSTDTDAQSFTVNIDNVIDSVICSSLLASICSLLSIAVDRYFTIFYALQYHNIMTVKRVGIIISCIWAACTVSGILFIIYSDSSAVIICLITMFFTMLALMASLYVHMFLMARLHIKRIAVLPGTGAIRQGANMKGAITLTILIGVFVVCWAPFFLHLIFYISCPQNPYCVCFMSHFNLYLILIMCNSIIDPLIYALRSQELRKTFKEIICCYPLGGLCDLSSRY

SMILES | IC50 [µM] | inhibition at 10 µM [%] | Displacement Rate (%) (at 10 μM)
CN[C@@H](Cc1ccc(OCc2ccccc2)cc1)C(=O)N1CCN(Cc2cccc(Cl)c2Cl)CC1 [Example 165] | < 1.5 |  | 
CCN[C@@H](Cc1ccc(OCc2ccccc2)cc1)C(=O)N1CCN(Cc2cccc(Cl)c2Cl)CC1 [Example 166] | < 1.5 | 91 to 100 | 
CCCN[C@@H](Cc1ccc(OCc2ccccc2)cc1)C(=O)N1CCN(Cc2cccc(Cl)c2Cl)CC1 [Example 167] | < 1.5 | 91 to 100 | 
CC(C)N[C@@H](Cc1ccc(OCc2ccccc2)cc1)C(=O)N1CCN(Cc2cccc(Cl)c2Cl)CC1 [Example 168] | < 1.5 | 71 to 90 | 
CCCCN[C@@H](Cc1ccc(OCc2ccccc2)cc1)C(=O)N1CCN(Cc2cccc(Cl)c2Cl)CC1 [Example 169] | < 1.5 | 91 to 100 | 
O=C([C@H](Cc1ccc(OCc2ccccc2)cc1)NCc1ccccc1)N1CCN(Cc2cccc(Cl)c2Cl)CC1 [Example 170] | > 3 | 71 to 90 | 
O=C([C@H](Cc1ccc(OCc2ccccc2)cc1)NCCc1ccccc1)N1CCN(Cc2cccc(Cl)c2Cl)CC1 [Example 171] | > 3 | 71 to 90 | 
O=C([C@H](Cc1ccc(OCc2ccccc2)cc1)NCCN1CCOCC1)N1CCN(Cc2cccc(Cl)c2Cl)CC1 [Example 172] | 1.5 to 3 | 71 to 90 | 
O=C([C@H](Cc1ccc(OCc2ccccc2)cc1)NCCCN1CCOCC1)N1CCN(Cc2cccc(Cl)c2Cl)CC1 [Example 173] | < 1.5 | 91 to 100 | 
CN(C)CCCN[C@@H](Cc1ccc(OCc2ccccc2)cc1)C(=O)N1CCN(Cc2cccc(Cl)c2Cl)CC1 [Example 174] | < 1.5 | 91 to 100 | 
CN(C)CCN[C@@H](Cc1ccc(OCc2ccccc2)cc1)C(=O)N1CCN(Cc2cccc(Cl)c2Cl)CC1 [Example 175] | < 1.5 | 91 to 100 | 
O=C([C@H](Cc1ccc(OCc2ccccc2)cc1)NCCN1CCCCC1)N1CCN(Cc2cccc(Cl)c2Cl)CC1 [Example 176] | < 1.5 | 91 to 100 | 
N[C@@H](Cc1ccc(OCc2ccccc2)cc1)C(=O)N1CCN(Cc2cccc(Cl)c2Cl)CC1 [Example 178] | < 1.5 |  | +++ (+++ = 91-100)
N[C@@H](Cc1ccc(OCc2ccccc2Br)cc1)C(=O)N1CCN(Cc2cccc(Cl)c2Cl)CC1 [Example 179] | < 1.5 |  | +++ (+++ = 91-100)
N[C@@H](Cc1ccc(OCc2cccc(F)c2)cc1)C(=O)N1CCN(Cc2cccc(Cl)c2Cl)CC1 [Example 180] | < 1.5 |  | +++ (+++ = 91-100)
N[C@@H](Cc1ccc(OCc2ccc(C(F)(F)F)cc2)cc1)C(=O)N1CCN(Cc2cccc(Cl)c2Cl)CC1 [Example 181] | < 1.5 |  | +++ (+++ = 91-100)

SMILES | IC50 [µM] | inhibition at 10 µM [%] | Displacement Rate (%) (at 10 μM)
N[C@@H](Cc1ccc(OCc2ccccc2C(F)(F)F)cc1)C(=O)N1CCN(Cc2cccc(Cl)c2Cl)CC1 [Example 182] | < 1.5 |  | +++ (+++ = 91-100)
N[C@@H](Cc1ccc(OCc2ccc(Cl)cc2)cc1)C(=O)N1CCN(Cc2cccc(Cl)c2Cl)CC1 [Example 183] | < 1.5 |  | +++ (+++ = 91-100)
CCCCc1ccc(COc2ccc(C[C@H](N)C(=O)N3CCN(Cc4cccc(Cl)c4Cl)CC3)cc2)cc1 [Example 184] | < 1.5 |  | +++ (+++ = 91-100)
N[C@@H](Cc1ccc(OCc2c(F)c(F)c(F)c(F)c2F)cc1)C(=O)N1CCN(Cc2cccc(Cl)c2Cl)CC1 [Example 185] | < 1.5 |  | +++ (+++ = 91-100)
N[C@@H](Cc1ccc(OCc2ccc(Br)cc2)cc1)C(=O)N1CCN(Cc2cccc(Cl)c2Cl)CC1 [Example 186] | < 1.5 |  | +++ (+++ = 91-100)
N[C@@H](Cc1ccc(OCc2cccc(C(F)(F)F)c2)cc1)C(=O)N1CCN(Cc2cccc(Cl)c2Cl)CC1 [Example 187] | 1.5 to 3 |  | +++ (+++ = 91-100)
N[C@@H](Cc1ccc(OCc2ccc(F)cc2)cc1)C(=O)N1CCN(Cc2cccc(Cl)c2Cl)CC1 [Example 188] | < 1.5 |  | +++ (+++ = 91-100)
N[C@@H](Cc1ccc(OCc2cc(Cl)cc(Cl)c2)cc1)C(=O)N1CCN(Cc2cccc(Cl)c2Cl)CC1 [Example 189] | < 1.5 |  | +++ (+++ = 91-100)
Cc1cc(C)cc(COc2ccc(C[C@H](N)C(=O)N3CCN(Cc4cccc(Cl)c4Cl)CC3)cc2)c1 [Example 190] | 1.5 to 3 |  | +++ (+++ = 91-100)
Cc1ccc(COc2ccc(C[C@H](N)C(=O)N3CCN(Cc4cccc(Cl)c4Cl)CC3)cc2)cc1C [Example 191] | < 1.5 |  | +++ (+++ = 91-100)
Cc1ccc(COc2ccc(C[C@H](N)C(=O)N3CCN(Cc4cccc(Cl)c4Cl)CC3)cc2)cc1 [Example 192] | < 1.5 |  | +++ (+++ = 91-100)
N[C@@H](Cc1ccc(OCc2cccc(Oc3ccccc3)c2)cc1)C(=O)N1CCN(Cc2cccc(Cl)c2Cl)CC1 [Example 193] | < 1.5 |  | +++ (+++ = 91-100)
COc1cc(COc2ccc(C[C@H](N)C(=O)N3CCN(Cc4cccc(Cl)c4Cl)CC3)cc2)cc(OC)c1 [Example 194] | 1.5 to 3 |  | +++ (+++ = 91-100)
CC(C)c1ccc(COc2ccc(C[C@H](N)C(=O)N3CCN(Cc4cccc(Cl)c4Cl)CC3)cc2)cc1 [Example 195] | < 1.5 |  | +++ (+++ = 91-100)
N[C@@H](Cc1ccc(OCc2ccc(F)cc2F)cc1)C(=O)N1CCN(Cc2cccc(Cl)c2Cl)CC1 [Example 196] | < 1.5 |  | +++ (+++ = 91-100)
N[C@@H](Cc1ccc(OCc2cccc(Br)c2)cc1)C(=O)N1CCN(Cc2cccc(Cl)c2Cl)CC1 [Example 197] | < 1.5 |  | +++ (+++ = 91-100)

Further lines, results first:

IC50 [µM] | inhibition at 10 µM [%] | Displacement Rate (%) (at 10 μM) | SMILES
< 1.5 |  | +++ (+++ = 91-100) | N[C@@H](Cc1ccc(OCc2ccc(-c3ccccc3)cc2)cc1)C(=O)N1CCN(Cc2cccc(Cl)c2Cl)CC1 [Example 198]
1.5 to 3 |  | +++ (+++ = 91-100) | N[C@@H](Cc1ccc(OCc2cc(C(F)(F)F)cc(C(F)(F)F)c2)cc1)C(=O)N1CCN(Cc2cccc(Cl)c2Cl)CC1 [Example 199]
< 1.5 |  | +++ (+++ = 91-100) | N[C@@H](Cc1ccc(OCc2ccc(Cl)cc2Cl)cc1)C(=O)N1CCN(Cc2cccc(Cl)c2Cl)CC1 [Example 200]
< 1.5 |  | +++ (+++ = 91-100) | CC(C)(C)c1ccc(COc2ccc(C[C@H](N)C(=O)N3CCN(Cc4cccc(Cl)c4Cl)CC3)cc2)cc1 [Example 201]
1.5 to 3 |  | +++ (+++ = 91-100) | Cc1ccc(C)c(COc2ccc(C[C@H](N)C(=O)N3CCN(Cc4cccc(Cl)c4Cl)CC3)cc2)c1 [Example 202]
1.5 to 3 |  | +++ (+++ = 91-100) | COc1cccc(COc2ccc(C[C@H](N)C(=O)N3CCN(Cc4cccc(Cl)c4Cl)CC3)cc2)c1 [Example 203]
< 1.5 |  | +++ (+++ = 91-100) | N[C@@H](Cc1ccc(OCc2ccc(Cl)c(Cl)c2)cc1)C(=O)N1CCN(Cc2cccc(Cl)c2Cl)CC1 [Example 204]
1.5 to 3 |  | +++ (+++ = 91-100) | N[C@@H](Cc1ccc(OCc2c(F)cccc2F)cc1)C(=O)N1CCN(Cc2cccc(Cl)c2Cl)CC1 [Example 205]
< 1.5 |  | +++ (+++ = 91-100) | N[C@@H](Cc1ccc(OCc2cccc(OCc3ccccc3)c2)cc1)C(=O)N1CCN(Cc2cccc(Cl)c2Cl)CC1 [Example 206]
1.5 to 3 |  | +++ (+++ = 91-100) | N[C@@H](Cc1ccc(OCc2ccc(OCc3ccccc3)cc2)cc1)C(=O)N1CCN(Cc2cccc(Cl)c2Cl)CC1 [Example 208]
1.5 to 3 | 91 to 100 |  | CCOc1ccc(COc2ccc(C[C@H](N)C(=O)N3CCN(Cc4cccc(Cl)c4Cl)CC3)cc2)cc1 [Example 209]
1.5 to 3 |  | +++ (+++ = 91-100) | N[C@@H](Cc1ccc(OCc2ccccc2Cl)cc1)C(=O)N1CCN(Cc2cccc(Cl)c2Cl)CC1 [Example 210]
< 1.5 |  | +++ (+++ = 91-100) | N[C@@H](Cc1ccc(OCc2cc(Cl)ccc2Cl)cc1)C(=O)N1CCN(Cc2cccc(Cl)c2Cl)CC1 [Example 212]
< 1.5 |  | +++ (+++ = 91-100) | Cc1cccc(COc2ccc(C[C@H](N)C(=O)N3CCN(Cc4cccc(Cl)c4Cl)CC3)cc2)c1 [Example 213]
< 1.5 |  | +++ (+++ = 91-100) | N[C@@H](Cc1ccc(OCc2ccccc2-c2ccccc2)cc1)C(=O)N1CCN(Cc2cccc(Cl)c2Cl)CC1 [Example 214]
< 1.5 |  | +++ (+++ = 91-100) | N[C@@H](Cc1ccc(OCc2ccccc2Cc2ccccc2)cc1)C(=O)N1CCN(Cc2cccc(Cl)c2Cl)CC1 [Example 215]
1.5 to 3 |  | +++ (+++ = 91-100) | Cc1ccccc1COc1ccc(C[C@H](N)C(=O)N2CCN(Cc3cccc(Cl)c3Cl)CC2)cc1 [Example 216]
< 1.5 |  | +++ (+++ = 91-100) | N[C@@H](Cc1ccc(OCc2ccc3ccccc3c2)cc1)C(=O)N1CCN(Cc2cccc(Cl)c2Cl)CC1 [Example 217]
1.5 to 3 |  | +++ (+++ = 91-100) | N[C@@H](Cc1ccc(OCc2cccc3ccccc23)cc1)C(=O)N1CCN(Cc2cccc(Cl)c2Cl)CC1 [Example 218]
< 1.5 |  | +++ (+++ = 91-100) | N[C@@H](Cc1ccc(OCc2ccc(Cl)c([N+](=O)[O-])c2)cc1)C(=O)N1CCN(Cc2cccc(Cl)c2Cl)CC1 [Example 219]
